From patent publication US5235055A, “Antipsychotic quinoline derivatives of benzodioxanmethylamine” (American Home Products Corporation, priority 1992, dated 1993)
Where two headings read alike, the source gives them in different places.

Tests used:
5-HT1A receptor = conditions: Fozard et al. 1987, cited from earlier work
synthesis of dopamine = assay: Effect on dopamine synthesis: inhibition of dopa accumulation in GBL/NSD-1015-treated rats (Walters and Roth); type: in vivo, rats (male, Sprague-Dawley); conditions: Rattus norvegicus, sc, read-out: Dopa Accumulation (% inhib. @ 10 mg/kg, sc)
Method: The effect of the compounds of the invention on the synthesis of dopamine was established by the method of Walters and Roth, Naunyn-Schmiedeberg's Arch. Pharmacol. 296:5-14, 1976, in which rats (male, Sprague-Dawley, Charles River, 200-350 g) were administered vehicle or test drug ten minutes prior to the administration of gamma butyrolactone (GBL; 750 mg/kg, ip to inhibit dopaminergic impulse flow) and 20 minutes prior to NSD-1015 (100 mg/kg, ip to prevent the conversion of dopa to dopamine). Thirty minutes after NSD-1015 all rats were decapitated and the nucleus accumbens and the striatum were removed for analysis. Following perchloric acid extraction of the tissue, the extracts were placed over alumina columns to collect and concentrate dopa and other catechols. This eluate was then subjected to HPLC analysis using electrochemical detection to quantify the levels of dopa present. Dopamine autoreceptor agonists, under the conditions used above, inhibit dopa accumulation.

dopamine D2 receptor = target: T1, dopamine D2 receptor (Rattus norvegicus, UniProt P61169); assay: Affinity for dopamine D2 receptor (3H-quinpirole, rat striatal homogenate); type: binding; conditions: rat striatal brain tissue
T1 construct: homogenized rat striatal brain tissue; from tissue; host or cells: rat striatum (homogenized brain tissue)
T1 sequence (P61169 whole entry): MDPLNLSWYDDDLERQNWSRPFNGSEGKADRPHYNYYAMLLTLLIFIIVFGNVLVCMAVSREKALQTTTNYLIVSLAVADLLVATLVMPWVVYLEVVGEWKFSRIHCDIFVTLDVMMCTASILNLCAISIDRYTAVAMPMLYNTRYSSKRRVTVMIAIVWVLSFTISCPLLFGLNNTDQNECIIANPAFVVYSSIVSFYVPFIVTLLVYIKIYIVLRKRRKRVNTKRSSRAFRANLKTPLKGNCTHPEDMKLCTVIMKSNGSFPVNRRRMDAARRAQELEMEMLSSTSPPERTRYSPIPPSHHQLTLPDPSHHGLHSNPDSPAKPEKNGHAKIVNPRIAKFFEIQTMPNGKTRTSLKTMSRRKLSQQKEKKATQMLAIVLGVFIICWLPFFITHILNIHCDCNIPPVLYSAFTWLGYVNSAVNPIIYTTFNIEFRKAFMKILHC
Method: Affinity for the dopamine D2 receptor was established by a modification of the standard experimental test procedure of Seemen and Schaus, European Journal of Pharmacology 203: 105-109, 1991, wherein homogenized rat striatal brain tissue is incubated with ^3 H-quinpirole and various concentrations of test compound, filtered and washed and counted in a Betaplate scintillation counter.

mouse locomotor activity = assay: Reduction of mouse locomotor activity (hypolocomotion; Martin and Bendensky); type: in vivo, mice (male, CF-1); conditions: ip, horizontal activity counts 10 to 20 minutes after dosing
Method: The antipsychotic activity of the compounds of the invention was further established by a determination of the compounds' ability to reduce mouse locomotor activity according to the method of Martin and Bendensky, J. Pharmacol. Exp. Therap. 229:706-711, 1984, in which mice (male, CF-1, Charles River, 20-30 g) were injected with vehicle or various doses of each drug and locomotor activity was measured for 30 minutes using automated infrared activity monitors (Omnitech--8×8 inch open field) located in a darkened room. ED50 's were calculated from the horizontal activity counts collected from 10 to 20 minutes after dosing using a nonlinear regression analysis with inverse prediction.

SMILES	inhibition at 10 mg/kg (synthesis of dopamine; limbic (L) brain tissue) [%]	ED50 (mouse locomotor activity) [mg/kg]	inhibition at 0.1 µM (dopamine D2 receptor) [%]	other results
O=C1CC2(CCCC2)CC(=O)N1CCCCNCC1COc2ccccc2O1 (single isomer, unassigned; (-)) [(-)-MDL 72832]	–	–	–	binding at the 5-HT1A receptor site relative to the dextrorotary isomer (times as much) (5-HT1A receptor; (-)-isomer vs dextrorotary isomer): 32 times
c1ccc2c(c1)OCC(CNCCCOc1ccc3cccnc3c1)O2 (centres unmarked) [Example 1, N-[3-(Quinolin-7-yloxy)propyl]-2,3-dihydro-1,4-benzodioxin-2-methanamine]	29	–	–	inhibition at 10 mg/kg (synthesis of dopamine; striatal (S) brain tissue): 44%
c1cnc2cc(OCCCNCC3COc4cc5c(cc4O3)OCO5)ccc2c1 (centres unmarked) [Example 2, N-[3-(Quinolin-7-yloxy)propyl]-2,3-dihydro-6,7-methylenedioxy-1,4-benzodioxin-2-methanamine]	60.4	3	–	IC50 (dopamine D2 receptor): 63 nM
c1cc(OCCCNCC2COc3cc4c(cc3O2)OCO4)c2cccnc2c1 (centres unmarked) [Example 3, N-[3-(Quinolin-5-yloxy)propyl]-2,3-dihydro-6,7-methylenedioxy-1,4-benzodioxin-2-methanamine]	42.6	12.6	25	–
COc1ccc2c(c1)OC(CNCCCOc1ccc3cccnc3c1)CO2 (centres unmarked) [Example 4, N-[3-(Quinolin-7-yloxy)propyl]-2,3-dihydro-7-methoxy-1,4-benzodioxin-2-methanamine]	–	–	55	–
O=C1CC2(CCCC2)CC(=O)N1CCCCNCC1COc2ccccc2O1 (centres unmarked) [MDL 72832, 8-[4-(1,4-benzodioxan-2-ylmethylamino)butyl]-8-azaspiro[4.5]decane-7,9-dione]	–	–	–	ligand for 5-HT1A receptors (in words) (5-HT1A receptor): selective and stereospecific
